Key:
[1] = target: human PD-L1 (Homo sapiens (Human), UniProt Q9NZQ7); test: T cell activation luciferase reporter cell culture system (T Cell Activation Assay); format: cell-based; details: luciferase reporter assay; PD-L1 aAPC/CHO-K1 cells with PD-1 effector Jurkat T cells
[2] = target: PD-L1 His protein / PD-1 Fc protein (Homo sapiens (Human), UniProt Q9NZQ7); test: HTRF Assay (PD-1/PD-L1 interaction); format: binding; details: PD-L1 His 6 nM, PD-1 Fc 6 nM
Chain of PD-L1 His protein / PD-1 Fc protein (Q9NZQ7 19-238): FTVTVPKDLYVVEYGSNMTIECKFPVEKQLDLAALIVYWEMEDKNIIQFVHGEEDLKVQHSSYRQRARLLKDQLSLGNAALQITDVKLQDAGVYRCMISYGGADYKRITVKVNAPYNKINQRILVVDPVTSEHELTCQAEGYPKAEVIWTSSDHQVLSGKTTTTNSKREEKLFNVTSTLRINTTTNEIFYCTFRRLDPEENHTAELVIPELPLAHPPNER

Chain of human PD-L1 (Q9NZQ7 19-290): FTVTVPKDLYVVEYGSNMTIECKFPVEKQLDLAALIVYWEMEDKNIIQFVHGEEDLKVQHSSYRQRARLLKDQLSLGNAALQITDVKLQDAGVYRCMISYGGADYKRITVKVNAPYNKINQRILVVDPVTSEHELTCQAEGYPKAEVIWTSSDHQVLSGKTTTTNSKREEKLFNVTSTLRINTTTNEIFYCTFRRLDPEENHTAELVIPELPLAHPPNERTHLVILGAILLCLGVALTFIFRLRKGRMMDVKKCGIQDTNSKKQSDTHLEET

## CNCc1ccc(-c2cccc(-c3ccnc(-c4cc(CN5CC6(CC(C(=O)O)C6)C5)cc(OC)c4)c3Cl)c2Cl)nc1OC [Compound 173, 2-(3-(3-chloro-4-(2-chloro-3-(6-methoxy-5-((methylamino)methyl)pyridine-2-yl)phenyl)pyridine-2-yl)-5-methoxybenzyl)-2-azaspiro[3.3]heptane-6-carboxylic acid]
[1]
  EC50: ≥ 10000 nM
[2]
  IC50: 32.1 nM

## CNCc1ccc(-c2cccc(-c3ccnc(-c4cc(CNC56CC(C(=O)O)(C5)C6)cc(OC)c4)c3Cl)c2Cl)nc1OC [Compound 174, 3-((3-(3-chloro-4-(2-chloro-3-(6-methoxy-5-((methylamino)methyl)pyridine-2-yl)phenyl)pyridine-2-yl)-5-methoxybenzyl)amino)bicyclo[1.1.1]pentane-1-carboxylic acid]
[1]
  EC50: ≥ 10000 nM
[2]
  IC50: 23.6 nM

## CNCc1ccc(-c2cccc(-c3ccnc(-c4cc(CNCC56CC(C(=O)O)(C5)C6)cc(OC)c4)c3Cl)c2Cl)nc1OC [Compound 175, 3-(((3-(3-chloro-4-(2-chloro-3-(6-methoxy-5-((methylamino)methyl)pyridine-2-yl)phenyl)pyridine-2-yl)-5-methoxybenzyl)amino)methyl)bicyclo[1.1.1]pentane-1-carboxylic acid]
[1]
  EC50: 1160 nM
[2]
  IC50: 8.73 nM

## COc1cc(-c2nccc(-c3cccc(-c4cc(F)c(CNC[C@@H]5CCC(=O)N5)c(OC)n4)c3Cl)c2Cl)cc2c1CN(C[C@H](C)O)CC2 [Compound 176, (S)-5-((((6-(2-chloro-3-(3-chloro-2-(2-((S)-2-hydroxypropyl)-8-methoxy-1,2,3,4-tetrahydroisoquinolin-6-yl)pyridine-4-yl)phenyl)-4-fluoro-2-methoxypyridin-3-yl)methyl)amino)methyl)pyridine1334ne-2-one]
[1]
  EC50: 9.99 nM
[2]
  IC50: 1.05 nM

## COc1nc(-c2cccc(-c3ccnc(-c4ccc5c(c4)S(=O)(=O)CCNC5)c3Cl)c2Cl)ccc1CNC[C@@H]1CCC(=O)N1 [Compound 177, (S)-5-((((6-(2-chloro-3-(3-chloro-2-(1,1-dioxido-2,3,4,5-tetrahydrobenzo[f][1,4]pyridine1334n-8-yl)pyridine-4-yl)phenyl)-2-methoxypyridin-3-yl)methyl)amino)methyl)pyridine1334ne-2-one]
[1]
  EC50: 176 nM
[2]
  IC50: 1.76 nM

## COc1nc(-c2cccc(-c3ccnc(-c4ccc5c(c4)CN(CCNC[C@@H]4CCC(=O)N4)C5=O)c3Cl)c2Cl)cc(F)c1CNC[C@@H]1CCC(=O)N1 [Compound 178, 5-(3-chloro-4-(2-chloro-3-(4-fluoro-6-methoxy-5-(((((S)-5-oxopyrrolidin-2-yl)methyl)amino)methyl)pyridine-2-yl)phenyl)pyridine-2-yl)-2-(2-((((S)-5-oxopyrrolidin-2-yl)methyl)amino)ethyl)isoindolin-1-one]
[1]
  EC50: 144 nM
[2]
  IC50: 1.25 nM

## COc1cc(-c2nccc(-c3cccc(-c4ccc(CNC[C@@H]5CCC(=O)N5)c(OC)n4)c3Cl)c2Cl)ccc1C1=NCCN1 [Compound 179, (S)-5-((((6-(2-chloro-3-(3-chloro-2-(4-(4,5-dihydro-1H-imidazol-2-yl)-3-methoxyphenyl)pyridine-4-yl)phenyl)-2-methoxypyridin-3-yl)methyl)amino)methyl)pyridine1334ne-2-one]
[1]
  EC50: 30.8 nM
[2]
  IC50: 2.45 nM

## COc1cc(-c2nccc(-c3cccc(-c4ccc(C5=NCCN5)c(OC)n4)c3Cl)c2Cl)ccc1CNC[C@@H](O)CC(=O)O [Compound 180, (S)-4-((4-(3-chloro-4-(2-chloro-3-(5-(4,5-dihydro-1H-imidazol-2-yl)-6-methoxypyridin-2-yl)phenyl)pyridine-2-yl)-2-methoxybenzyl)amino)-3-hydroxybutanoic acid]
[1]
  EC50: 35.9 nM
[2]
  IC50: 5.64 nM

## COc1cc(-c2nccc(-c3cccc(-c4ccc(CNC[C@@H]5CCC(=O)N5)c(OC)n4)c3Cl)c2Cl)cc(F)c1CNC[C@@H]1CCO1 [Compound 181, (S)-5-((((6-(2-chloro-3-(3-chloro-2-(3-fluoro-5-methoxy-4-(((((S)-oxetan-2-yl)methyl)amino)methyl)phenyl)pyridine-4-yl)phenyl)-2-methoxypyridin-3-yl)methyl)amino)methyl)pyridine1335ne-2-one]
[1]
  EC50: 30.5 nM
[2]
  IC50: 11.2 nM

## COC(=O)C1CN(Cc2nn3cc(-c4nccc(-c5cccc(-c6ccc(CNC[C@@H]7CCC(=O)N7)c(OC)n6)c5Cl)c4Cl)cc3c(=O)n2C)C1 [Compound 182, methyl (S)-1-((6-(3-chloro-4-(2-chloro-3-(6-methoxy-5-((((5-oxopyrrolidin-2-yl)methyl)amino)methyl)pyridine-2-yl)phenyl)pyridine-2-yl)-3-methyl-4-oxo-3,4-dihydropyrrolo[2,1-f][1,2,4]pyridine-2-yl)methyl)azetidine-3-carboxylate]
[1]
  EC50: 38.7 nM
[2]
  IC50: 2.46 nM

## COc1nc(-c2cccc(-c3ccnc(-c4ccc5c(CNC[C@@H]6CCC(=O)N6)nn(C)c5c4)c3Cl)c2Cl)ccc1CNC[C@@H]1CCC(=O)N1 [Compound 183, (S)-5-((((6-(2-chloro-3-(3-chloro-2-(1-methyl-3-(((((S)-5-oxopyrrolidin-2-yl)methyl)amino)methyl)-1H-indazol-6-yl)pyridine-4-yl)phenyl)-2-methoxypyridin-3-yl)methyl)amino)methyl)pyridine1335ne-2-one]
[1]
  EC50: 44.9 nM
[2]
  IC50: 2.95 nM

## COc1nc(-c2cccc(-c3ccnc(-c4ccc5c(c4)CCC[C@@H]5NC[C@@H]4CCC(=O)N4)c3Cl)c2Cl)ccc1CNC[C@@H]1CCC(=O)N1 [Compound 184, (S)-5-((((6-(2-chloro-3-(3-chloro-2-((S)-5-((((S)-5-oxopyrrolidin-2-yl)methyl)amino)-5,6,7,8-tetrahydronaphthalen-2-yl)pyridine-4-yl)phenyl)-2-methoxypyridin-3-yl)methyl)amino)methyl)pyridine1335ne-2-one]
[1]
  EC50: 80.4 nM
[2]
  IC50: 15.5 nM

## COc1nc(-c2cccc(-c3ccnc(-c4ccc5c(c4)CCC[C@H]5NC[C@@H]4CCC(=O)N4)c3Cl)c2Cl)ccc1CNC[C@@H]1CCC(=O)N1 [Compound 185, (S)-5-((((6-(2-chloro-3-(3-chloro-2-((R)-5-((((S)-5-oxopyrrolidin-2-yl)methyl)amino)-5,6,7,8-tetrahydronaphthalen-2-yl)pyridine-4-yl)phenyl)-2-methoxypyridin-3-yl)methyl)amino)methyl)pyridine1335ne-2-one]
[1]
  EC50: 19.3 nM
[2]
  IC50: 10.1 nM

## COc1cc(-c2nccc(-c3cccc(-c4ccc5c(OC)c(CNC[C@H](C)O)cc(Cl)c5n4)c3Cl)c2Cl)ccc1CNC[C@@H]1CCC(=O)N1 [Compound 206, (S)-5-(((4-(3-chloro-4-(2-chloro-3-(8-chloro-6-((((S)-2-hydroxypropyl)amino)methyl)-5-methoxyquinolin-2-yl)phenyl)pyridin-2-yl)-2-methoxybenzyl)amino)methyl)pyrrolidin-2-one]
[1]
  EC50: 182 nM
[2]
  IC50: 0.856 nM

## COc1cc(-c2nccc(-c3cccc(-c4ccc5c(OC)c(CNC[C@@H]6CCC(=O)N6)cc(Cl)c5n4)c3Cl)c2Cl)ccc1CNC[C@@H]1CCC(=O)N1 [Compound 207, (S)-5-((((8-chloro-2-(2-chloro-3-(3-chloro-2-(3-methoxy-4-(((((S)-5-oxopyrrolidin-2-yl)methyl)amino)methyl)phenyl)pyridin-4-yl)phenyl)-5-methoxyquinolin-6-yl)methyl)amino)methyl)pyrrolidin-2-one]
[1]
  EC50: 118 nM
[2]
  IC50: 7.66 nM

## COc1nc(-c2cccc(-c3ccnc(-c4cc(Cl)c5c(c4)CCN(CCC(C)(C)O)C5)c3Cl)c2Cl)ccc1CNC[C@@H]1CCC(=O)N1 [Compound 208, (S)-5-((((6-(2-chloro-3-(3-chloro-2-(8-chloro-2-(3-hydroxy-3-methylbutyl)-1,2,3,4-tetrahydroisoquinolin-6-yl)pyridin-4-yl)phenyl)-2-methoxypyridin-3-yl)methyl)amino)methyl)pyrrolidin-2-one]
[1]
  EC50: 82 nM
[2]
  IC50: 8.04 nM

## COc1cc(-c2nccc(-c3cccc(-c4ccc(C5=NCCN5)c(OC)n4)c3Cl)c2Cl)ccc1CNC[C@@H](O)CC(=O)OC(C)C [Compound 209, isopropyl (S)-4-((4-(3-chloro-4-(2-chloro-3-(5-(4,5-dihydro-1H-imidazol-2-yl)-6-methoxypyridin-2-yl)phenyl)pyridin-2-yl)-2-methoxybenzyl)amino)-3-hydroxybutanoate]
[1]
  EC50: ≥ 10000 nM
[2]
  IC50: 22.8 nM

## COc1cc(-c2nccc(-c3cccc(-c4ccc(CNC[C@@H]5CCC(=O)N5)c(OC)n4)c3Cl)c2Cl)cc(F)c1CNC1CC2(C1)CN(C(C)=O)C2 [Compound 210, (S)-5-((((6-(3-(2-(4-(((2-acetyl-2-azaspiro[3.3]heptan-6-yl)amino)methyl)-3-fluoro-5-methoxyphenyl)-3-chloropyridin-4-yl)-2-chlorophenyl)-2-methoxypyridin-3-yl)methyl)amino)methyl)pyrrolidin-2-one]
[1]
  EC50: 26.6 nM
[2]
  IC50: 2.12 nM

## CNCc1ccc(-c2cccc(-c3ccnc(-c4ccc(CNC(C)C)c(OC)c4)c3Cl)c2Cl)nc1OC [Compound 211, N-(4-(3-chloro-4-(2-chloro-3-(6-methoxy-5-((methylamino)methyl)pyridin-2-yl)phenyl)pyridin-2-yl)-2-methoxybenzyl)propan-2-amine]
[1]
  EC50: 56.2 nM
[2]
  IC50: 4.2 nM

## CNCc1ccc(-c2cccc(-c3ccnc(-c4ccc(CNC5CCN(C(C)=O)CC5)c(OC)c4)c3Cl)c2Cl)nc1OC [Compound 212, 1-(4-((4-(3-chloro-4-(2-chloro-3-(6-methoxy-5-((methylamino)methyl)pyridin-2-yl)phenyl)pyridin-2-yl)-2-methoxybenzyl)amino)piperidin-1-yl)ethan-1-one]
[1]
  EC50: 20.6 nM
[2]
  IC50: 2.72 nM

## CNCc1ccc(-c2cccc(-c3ccnc(-c4ccc(CN5CC6(CNC(=O)C6)C5)c(OC)c4)c3Cl)c2Cl)nc1OC [Compound 213, 2-(4-(3-chloro-4-(2-chloro-3-(6-methoxy-5-((methylamino)methyl)pyridin-2-yl)phenyl)pyridin-2-yl)-2-methoxybenzyl)-2,6-diazaspiro[3.4]octan-7-one]
[1]
  EC50: 23.5 nM
[2]
  IC50: 2.73 nM

From patent US20240246964A1 (Arbutus Biopharma Corporation, priority 2021, published 2024)
